Measurements taken from patent US8414911B2, “Photochemical therapy to affect mechanical and/or chemical properties of body tissue” (The Regents of the University of California, priority 2006, dated 2013).
“Also recorded” adds a separate entry of the source.

How the values were obtained:
[1] = tested on: human and porcine sclera; conditions: human and porcine sclera in vitro; cited from earlier work
[2] = after use of topically applied proparacaine (Ehlers et al.); cited from earlier work
[3] = tested on: sclera of enucleated eyes; test: Ocular inflation model of myopia (enucleated eyes, elevated IOP 85 mmHg); set-up: species or system New Zealand White Rabbits; conditions: 0.3% soak 5 min, 10 mW/cm^2, 365 nm, 10 min anterior and 10 min posterior
Method: Stabilization of ocular shape is evaluated in vitro using pairs of enucleated eyes from young (˜1-2 weeks) New Zealand White Rabbits, one eye treated and the fellow eye as control. To mimic and accelerate aspects of the loading geometry present in vivo, the intact globes are mechanically tested by imposing an elevated intraocular pressure: a syringe connects the intraocular fluid to an elevated reservoir of Dulbecco's phosphate buffered saline (DPBS) while the exterior of the eye is immersed in DPBS at ambient pressure (FIG. 1).
The size and shape of the globes are simultaneously recorded from two orthogonal perspectives over time. To prepare eyes for the tests, the epithelium is optionally removed from the cornea with a cotton swab, and external fat is removed from the globe. (Note that permeation of the photoinitiator into tissue is examined separately below.) The eyes are then soaked in control (Dulbecco's PBS) or treatment solutions (e.g., 0.029 mM Eosin Y, 90 mM TEOA, in DPBS) for 5 min. After soaking, the eyes are patted dry to remove extra solution from the surface, and then irradiated for 5 min from the front and 5 min from the back with, e.g., 34 mW/cm^2 at 500±50 nm for Eosin Y/TEOA. […] Photographs taken every 10 minutes for approximately 24 hours are analyzed to quantify the extension of the cornea and sclera.

[4] = tested on: porcine sclera sections; test: Rheometric analysis of sclera sections (modulus pre- and post-treatment); conditions: photoinitiator alone, compared with photoinitiator plus PEGDM
From the text: The ability of initiator with or without crosslinking compounds to strengthen the sclera was initially evaluated using rheometric analysis of tissue sections. Sclera sections (8 mm diameter) were cut from porcine eyes and tested on a TA Instruments AR1000 rheometer (using a cleated parallel plate geometry) to quantify changes in modulus pre- and post-treatment. Two example photoinitiators were selected for initial evaluation.

| SMILES | increase of Young's modulus compared to untreated controls [1] [%] | further results |
| --- | --- | --- |
| Cc1cc2nc3c(=O)[nH]c(=O)nc-3n(C[C@H](O)[C@H](O)[C@H](O)CO)c2cc1C [riboflavin-UVA, riboflavin] | 29 |  |
| CCCOc1ccc(C(=O)OCCN(CC)CC)cc1N [proparacaine] |  | increases in drug delivery to the aqueous [2]: 4 fold |
| CC(C)(O)C(=O)c1ccc(OCCO)cc1 [compound 12959, 2-hydroxy-1-[4-(2-hydroxyethoxy)phenyl]-2-methyl-1-propanone] |  | stabilization of eye shape / sclera under elevated IOP [3]: hold a steady shape; also recorded: stabilize the sclera; increases in modulus [4]: comparable increases in modulus |
| O=CCCCC=O [Glutaraldehyde] | 122 |  |
| O=CC(O)CO (stereo not drawn) [glyceraldehyde] | 34 |  |
